This assay concerns P. aeruginosa NCTC11454. Description: Antimicrobial susceptibility testing: 50% growth inhibitory concentration (IC50) determination. The class given is cell-based. To be noted: Pseudomonas aeruginosa, Iso-Sensitest broth, OD 600 nm every 20 minutes over 16h, growth inhibition during logarithmic growth. On the procedure: The in vitro antimicrobial activity of the compounds was alternatively determined according to the following procedure: The assay used a 10-points Iso-Sensitest broth medium to measure quantitatively the in vitro activity of the compounds against P. aeruginosa NCTC11454. Stock compounds in DMSO were serially twofold diluted (e.g. range from 50 to 0.097 μM final concentration) in 384 wells microtiter plates and inoculated with 49 μl the bacterial suspension in Iso-Sensitest medium to have a final cell concentration of ˜5×10^(5) CFU/ml in a final volume/well of 50 ul/well. Microtiter plates were incubated at 35±2° C. Bacterial cell growth was determined with the measurement of optical density at λ=600 nm each 20 minutes over a time course of 16h. Growth inhibition was calculated during the logarithmic growth of the bacterial cells with determination of the concentration inhibiting 50% (IC50) and 90% (IC90) of the growth. Table 2 provides the 50% growth inhibitory concentrations (IC50) in micromoles per liter of the compounds of present invention obtained against P. aeruginosa NCTC11454.
Usually IC50 stands for the concentration needed to halve the response being measured. A high value points to weaker potency. For `NCCCC[C@@H]1NC(=O)[C@H](CCCN)NCc2cccnc2Sc2c(ccc(-c3ccccc3)c2Cl)CNC(=O)[C@H](Cc2c[nH]c3ccccc23)NC1=O` [Example 26, (11S,14S,17S)-14-(4-Amino-butyl)-11-(3-amino-propyl)-25-chloro-17-(1H-indol-3-ylmethyl)-24-phenyl-2-thia-4,10,13,16,19-pentaaza-tricyclo[9.4.0.0*3,8*]pentacosa-1(25),3,5,7,21,23-hexaene-12,15,18-trione], half-maximal inhibition (IC50) required 23.7 µM. In turn, `CN1C(=O)[C@H](CCCCN)NC(=O)[C@H](CCCN)NCc2ccccc2Sc2ncc(Cl)cc2CNC(=O)[C@@H]1Cc1c[nH]c2ccccc12` [Example 43] returned an IC50 of 22.9 µM. In turn, `CN1C(=O)[C@H](CCC(N)=O)NC(=O)[C@H](CCCN)NCc2ccccc2Sc2c(cc(-c3ccccc3)cc2C(F)(F)F)CNC(=O)[C@@H]1Cc1c[nH]c2ccccc12` [Example 39, 3-[(11S,14S,17S)-11-(3-Amino-propyl)-17-(1H-indol-3-ylmethyl)-16-methyl-12,15,18-trioxo-23-phenyl-25-trifluoromethyl-2-thia-10,13,16,19-tetraaza-tricyclo[19.4.0.0*3,8*]pentacosa-1(25),3,5,7,21,23-hexaen-14-yl]-propionamide] gave an IC50 of 23.5 µM. Then `CN1C(=O)[C@H](CCCCN)NC(=O)[C@H](CCCN)NCc2ccc(-c3ccccc3)cc2Sc2c(Cl)cccc2CNC(=O)[C@@H]1Cc1c[nH]c2ccccc12` [Example 52, (12S,15S,18S)-15-(4-Amino-butyl)-18-(3-amino-propyl)-4-chloro-12-(1H-indol-3-ylmethyl)-13-methyl-24-phenyl-2-thia-10,13,16,19-tetraaza-tricyclo[19.4.0.0*3,8*]pentacosa-1(25),3,5,7,21,23-hexaene-11,14,17-trione], with 11.6 µM. Then `CN1C(=O)[C@H](CCCCN)NC(=O)[C@H](CCCN)NCc2ccccc2Sc2nc(N3CCOCC3)ccc2CNC(=O)[C@@H]1Cc1c[nH]c2ccccc12` [Example 46], with 20.3 µM. Then `CN1C(=O)[C@H](CCCCN)NC(=O)[C@H](CCCN)NCc2cccnc2Sc2c(Cl)cc(C#CCOCc3ccccc3)cc2CNC(=O)[C@@H]1Cc1c[nH]c2ccccc12` [Example 45, (11S,14S,17S)-14-(4-Amino-butyl)-11-(3-amino-propyl)-23-(3-benzyloxy-prop-1-ynyl)-25-chloro-17-(1H-indol-3-ylmethyl)-16-methyl-2-thia-4,10,13,16,19-pentaaza-tricyclo[19.4.0.0*3,8*]pentacosa-1(25),3(8),4,6,21,23-hexaene-12,15,18-trione], with 6.07 µM; and `CN1C(=O)[C@H](CCCCN)NC(=O)[C@H](CCCN)NCc2cccnc2Sc2c(Cl)ccc(-c3ccc(N4CCNCC4)cc3)c2CNC(=O)[C@@H]1Cc1c[nH]c2ccccc12` [Example 55, (11S,14S,17S)-14-(4-Amino-butyl)-11-(3-amino-propyl)-25-chloro-17-(1H-indol-3-ylmethyl)-16-methyl-22-(4-piperazin-1-yl-phenyl)-2-thia-4,10,13,16,19-pentaaza-tricyclo[19.4.0.0*3,8*]pentacosa-1(25),3(8),4,6,21,2-hexaene-12,15,18-trione], with 26.6 µM; and `CN1C(=O)[C@H](CCCCN)NC(=O)[C@H](CCCN)NCc2cccnc2Sc2c(Cl)ccc(C(F)(F)F)c2CNC(=O)[C@@H]1Cc1c[nH]c2ccc(Cl)cc12` [Example 31, (11S,14S,17S)-14-(4-Amino-butyl)-11-(3-amino-propyl)-25-chloro-17-(5-chloro-1H-indol-3-ylmethyl)-16-methyl-22-trifluoromethyl-2-thia-4,10,13,16,19-pentaaza-tricyclo[19.4.0.0*3,8*]pentacosa-1(25),3,5,7,21,23-hexaene-12,15,18-trione], with 25.4 µM.

Compound `CN1C(=O)[C@H](CCCCN)NC(=O)[C@H](CCCN)NCc2ccccc2Sc2ccc(Cl)cc2CNC(=O)[C@@H]1Cc1c[nH]c2ccccc12` [Example 1, (12S,15S,18S)-15-(4-Amino-butyl)-18-(3-amino-propyl)-6-chloro-12-(1H-indol-3-ylmethyl)-13-methyl-2-thia-10,13,16,19-tetraaza-tricyclo[19.4.0.0*3,8*]pentacosa-1(21),3,5,7,22,24-hexaene-11,14,17-trione] came in with an IC50 of 32 µM. The IC50 values of the last two compounds are within 1.5-fold of each other.

Take `CN1C(=O)[C@H](CCCCN)NC(=O)[C@H](CCCN)NCc2cccnc2Sc2c(Cl)ccc(-c3cccc(CCN)c3)c2CNC(=O)[C@@H]1Cc1c[nH]c2ccccc12` [Example 54, (11S,14S,17S)-14-(4-Amino-butyl)-22-[3-(2-amino-ethyl)-phenyl]-11-(3-amino-propyl)-25-chloro-17-(1H-indol-3-ylmethyl)-16-methyl-2-thia-4,10,13,16,19-pentaaza-tricyclo[19.4.0.0*3,8*]pentacosa-1(25),3(8),4,6,21,23-hexaene-12,15,18-trione]: the IC50 came to 29.1 µM. For `CN1C(=O)[C@H](CCCCN)NC(=O)[C@H](CCCN)NCc2cc(Br)ccc2Sc2c(Cl)cccc2CNC(=O)[C@@H]1Cc1c[nH]c2ccccc12` [Example 48, (12S,15S,18S)-15-(4-Amino-butyl)-18-(3-amino-propyl)-23-bromo-4-chloro-12-(1H-indol-3-ylmethyl)-13-methyl-2-thia-10,13,16,19-tetraaza-tricyclo[19.4.0.0*3,8*]pentacosa-1(25),3,5,7,21,23-hexaene-11,14,17-trione] the value was 14.2 µM.

Consider `Cc1[nH]c2ccccc2c1C[C@H]1C(=O)NCc2c(-c3ccncc3)ccc(Cl)c2Sc2ncccc2CN[C@@H](CCCN)C(=O)N[C@@H](CCCCN)C(=O)N1C` [Example 47, (11S,14S,17S)-14-(4-Amino-butyl)-11-(3-amino-propyl)-25-chloro-16-methyl-17-(2-methyl-1H-indol-3-ylmethyl)-22-pyridin-4-yl-2-thia-4,10,13,16,19-pentaaza-tricyclo[19.4.0.0*3,8*]pentacosa-1(25),3(8),4,6,21,23-hexaene-12,15,18-trione], for which the midpoint of inhibition, the IC50, lay at 2.75 µM.

Regarding `CN1C(=O)[C@H](CCCCN)NC(=O)[C@H](CCCN)NCc2ccc(Br)cc2Sc2c(Cl)cccc2CNC(=O)[C@@H]1Cc1c[nH]c2ccccc12` [Example 51, (12S,15S,18S)-15-(4-Amino-butyl)-18-(3-amino-propyl)-24-bromo-4-chloro-12-(1H-indol-3-ylmethyl)-13-methyl-2-thia-10,13,16,19-tetraaza-tricyclo[19.4.0.0*3,8*]pentacosa-1(25),3,5,7,21,23-hexaene-11,14,17-trione], the IC50 is 12.3 µM. Against the preceding compound, the IC50 is about 4.5-fold higher.

With `CN1C(=O)[C@H](CCCCN)NC(=O)[C@H](CCCN)NCc2ccccc2Sc2ccccc2CNC(=O)[C@@H]1Cc1c[nH]c2cc(Cl)ccc12` [Example 5, (12S,15S,18S)-15-(4-Amino-butyl)-18-(3-amino-propyl)-12-(6-chloro-1H-indol-3-ylmethyl)-13-methyl-2-thia-10,13,16,19-tetraaza-tricyclo[19.4.0.0*3,8*]pentacosa-1(21),3,5,7,22,24-hexaene-11,14,17-trione], inhibition was half-maximal at 24.4 µM (IC50).

Compound `CN1C(=O)[C@H](CCCCN)NC(=O)[C@H](CCCN)NCc2ccccc2Sc2c(Cl)cc(-c3ccccc3)cc2CNC(=O)[C@@H]1Cc1c[nH]c2ccccc12` [Example 32, (12S,15S,18S)-15-(4-Amino-butyl)-18-(3-amino-propyl)-4-chloro-12-(1H-indol-3-ylmethyl)-13-methyl-6-phenyl-2-thia-111,13,16,19-tetraaza-tricyclo[19.4.0.0*3,8*]pentacosa-1(25),3,5,7,21,23-hexaene-11,14,17-trione] returned a half-maximal inhibitory concentration (IC50) of 7.15 µM. Then `CN1C(=O)[C@H](CCCCN)NC(=O)[C@H](CCCN)NCc2ccccc2Sc2cc(C(F)(F)F)ccc2CNC(=O)[C@@H]1Cc1c[nH]c2ccccc12` [Example 4, (12S,15S,18S)-15-(4-Amino-butyl)-18-(3-amino-propyl)-12-(1H-indol-3-ylmethyl)-13-methyl-5-trifluoromethyl-2-thia-10,13,16,19-tetraaza-tricyclo[19.4.0.0*3,8*]pentacosa-1(21),3,5,7,22,24-hexaene-11,14,17-trione], with 12.6 µM; and `CN1C(=O)[C@H](CCCCN)NC(=O)[C@@H](CCCN)NCc2cccnc2Sc2c(ccc(-c3ccccc3)c2Cl)CNC(=O)[C@@H]1Cc1c[nH]c2ccccc12` [Example 27, (11R,14S,17S)-14-(4-Amino-butyl)-11-(3-amino-propyl)-25-chloro-17-(1H-indol-3-ylmethyl)-16-methyl-24-phenyl-2-thia-4,10,13,16,19-pentaaza-tricyclo[19.4.0.0*3,8*]pentacosa-1(25),3,5,7,21,23-hexaene-12,15,18-trione], with 11.3 µM. For `CN1C(=O)[C@H](CCCCN)NC(=O)[C@H](CCCN)NCc2ccccc2Sc2ccc(Cl)cc2CNC(=O)[C@@H]1Cc1c[nH]c2cc(Cl)ccc12` [Example 7, (12S,15S,18S)-15-(4-Amino-butyl)-18-(3-amino-propyl)-6-chloro-12-(6-chloro-1H-indol-3-ylmethyl)-13-methyl-2-thia-10,13,16,19-tetraaza-tricyclo[19.4.0.0*3,8*]pentacosa-1(21),3,5,7,22,24-hexaene-11,14,17-trione] the value was 7.62 µM; for `CN1C(=O)[C@H](CCCCN)NC(=O)[C@H](CCCN)NCc2ccccc2Sc2ccc(Cl)c(Cl)c2CNC(=O)[C@@H]1Cc1c[nH]c2ccccc12` [Example 9, (12S,15S,18S)-15-(4-Amino-butyl)-18-(3-amino-propyl)-6,7-dichloro-12-(1H-indol-3-ylmethyl)-13-methyl-2-thia-10,13,16,19-tetraaza-tricyclo[19.4.0.0*3,8*]pentacosa-1(25),3,5,7,21,23-hexaene-11,14,17-trione], 24.5 µM.

(Values after patent US11066443B2 (Hoffmann-La Roche Inc., priority 2017, dated 2021).)
